# Laboratory results: paper PMC10590756, “Glutarate regulates T cell metabolism and anti-tumour immunity” (Nature Metabolism, 2023)
# Legend:
# [1] = test system: primary murine CD8^+ T cells; assay: Screen of T cell differentiation: CD62L/CD44 populations by flow cytometry; assay type: cell-based, mouse
# Excerpt: We first sought to investigate if compounds structurally related to 2HG could increase the TCM population of CD8^+ T cells. To carry out this analysis, we identified 19 structural analogues of 2HG; eight were commercially available and 11 were synthesized de novo for the purposes of this study (Table 1). We used esterified versions of most of the compounds used, so as to increase both potency and intracellular translocation. The octyl ester form of S-2HG was used as a positive control in these assays. We screened the compounds for effects on T cell differentiation at 400-µM levels (using the efficacy of S-2HG in CD8^+ T cells as a guide[11]) in culture media during the process of activation of isolated primary murine CD8^+ T cells.
# After 7 days of culture, we assessed the abundance of CD62L^hiCD44^hi (TCM-like) T cells by flow cytometry (Fig. 1a). We additionally determined the effect of each compound on cell growth and viability (Fig. 1b and Extended Data Fig. 1a).
# Mouse CD8^+ T cells were isolated from mouse spleens using positive selection. Incubation with microbeads conjugated to monoclonal anti-mouse CD8α (Ly-2; isotype: rat IgG2a) antibody (catalogue no. 130-049-401, Miltenyi Biotec) was followed by magnetic bead isolation on a MACS column. WT mouse CD8^+ T cells were activated with anti-mouse CD3/CD28 Dynabeads (catalogue no. 11453D, Thermo Fisher Scientific) at a 1:1 cell:bead ratio. Purified OT1 CD8^+ T cells were activated with 1 µg ml^−1 of the OVA-derived peptide SIINFEKL (ProImmune). All mouse CD8^+ T cells were cultured in complete RPMI 1640 supplemented with 10% FCS, 100 U ml^−1 penicillin, 100 µg ml^−1 streptomycin, 55 µM 2-ME (catalogue no. 21985023, Gibco) and 10 U ml^−1 IL-2.
# Single-cell suspensions were stained with LIVE/DEAD Fixable Near-IR Dead Cell Stain Kit (catalogue no. 10119, Thermo Fisher Scientific) followed by surface and intracellular staining with fluorochrome-labelled antibodies (Supplementary Tables 1 and 2). […]
# [2] = test system: CD8^+ T cells; assay: Seahorse analysis of ECAR and OCR (GST, MST, fuel flex test); assay type: cell-based, human
# Description: To explore further the metabolic consequences of this observed glutarate-induced reduction in PDHc activity, we performed a glycolysis stress test (GST). Acute effects were determined by treating CD8^+ T cells with DEG for 30 min while plated in the Seahorse XF Analyzer. Chronic effects were determined by performing a standard GST in CD8^+ T cells that had been cultured with DEG for 7 days before assay.
# To better understand the consequences of providing glutarate as a fuel for mitochondrial oxidation, we measured cellular oxygen consumption while inhibiting, in different combinations, fatty acid, glucose and glutamine oxidation, the three main fuel sources for mitochondrial oxidation (Extended Data Fig. 4i). This was achieved via injection of etomoxir, UK5099 and Bis-2-(5-phenylacetamido-1,3,4-thiadiazol-2-yl)ethyl sulphide (BPTES), respectively, in cells plated in a Seahorse XF Analyzer.
# A Seahorse XFe bioanalyzer was used to measure the OCR and ECAR. A total of 1.5 × 10^5 CD8^+ T cells per well were spun onto poly-D-lysine-coated (catalogue no. P7280, Sigma-Aldrich) Seahorse plates and preincubated at 37 °C for a minimum of 30 min in the absence of CO2 in Seahorse XF RPMI medium, pH 7.4 (10376-100, Agilent), supplemented with 10 mM glucose (catalogue no. A2494001, Thermo Fisher Scientific) and 2 mM glutamine (catalogue no. 25030081, Thermo Fisher Scientific). A minimum of five technical replicates per biological replicate were used. For the MST and GST, OCR and ECAR were measured under basal conditions and after the addition of the following: 750 µM DEG (catalogue no. QB-1473, Combi-block), 0.05% DMSO, 1 μM oligomycin (catalogue no. 75351, Sigma-Aldrich), 1.5 μM FCCP (catalogue no. C2920, Sigma-Aldrich), 100 nM rotenone + 1 μM antimycin A (catalogue nos. R8875 and A8674, Sigma-Aldrich), 10 mM glucose and 50 mM 2-DG (catalogue no. B1048-100, BioVision) as indicated. To assess mitochondrial fuel use, OCR was measured subsequent to the addition of the following drugs in different combinations as indicated: 3 µM BPTES (catalogue no. SML0601, Sigma-Aldrich), 2 µM UK-5099 (catalogue no. PZ0160, Sigma-Aldrich) and 4 µM etomoxir (catalogue no. E1905, Sigma-Aldrich). Assay parameters were as follows: 3 min mix, no wait, 3 min measurement, repeated 3–5 times at basal and after each addition. Measurements were taken using a 96-well Extracellular Flux Analyzer (Seahorse Bioscience).
# [3] = target: T1, PDHc (Homo sapiens, UniProt P10515); assay: PDHc activity assay on CD8^+ T cell lysates; assay type: cell-based; conditions: 500 µM DEG
# T1 construct: we performed a direct enzymatic activity assay of the PDHc on CD8^+ T cell lysates; endogenous in cells; host or cells: human CD8+ T cells, lysate (activity kit MAK183, Sigma-Aldrich)
# Description: PDHc activity was determined using a PDHc Activity Assay Kit (catalogue no. MAK183, Sigma-Aldrich). A total of 1 × 10^6 cells were used per reaction and the assay was performed according to the manufacturer’s instructions. Activity was normalized to total protein concentration. Data were acquired on a FLUOstar Omega (BMG Labtech).
# [4] = test system: 5hmC (the reaction product of TET2) in human CD8^+ T cells; assay: 5hmC staining by flow cytometry; assay type: cell-based; conditions: DEG 7 days, dose-dependent
# Description: For 5-hydroxymethylcytosine (5hmC) staining, cells were stained for surface antigens as above and then fixed and permeabilized with the Transcription Factor Buffer Set. Next cells were incubated with 4 M HCl for 10 min at room temperature. Cells were then thoroughly washed and incubated in blocking buffer (0.1% PBS-Triton X-100, 5% FCS) for 30 min at 4 °C. Cells were then incubated with primary anti-5hmC (catalogue no. 10013602, Active Motif) overnight at 4 °C and the day after with secondary antibody for 1 h at room temperature. Flow cytometry was then performed as explained above. Cells were sorted on an FACSAria III (BD Biosciences) after surface antigen staining as described above. Data were analysed using FlowJo v.10.7.2.
# [5] = fuel flex test, 500 µM DEG, 7 days, other fuel sources limited
compound,measurement,setting,value
"CCOC(=O)CCCC(=O)OCC [DEG, Diethyl glutarate]",abundance of CD62L^hiCD44^hi (TCM-like) CD8^+ T cells,"[1]; 400 µM test compound, 7 days of culture",significantly increased
same,effector memory T (TEM) cell population (CD62L^loCD44^hi),[1]; 7 days of culture with DEG,decreased
same,CD62L^hiCD44^hi TCM population,"[1]; increasing concentrations of DEG, 7 days",increased the CD62L^hiCD44^hi TCM population in a dose-dependent manner
same,"maximal OCR, cells treated 7 days with DEG","[2]; 500 µM DEG, 7 days",reduced maximal OCR
same,basal oxygen consumption rates (OCRs),"[2]; 500 µM DEG, acute and chronic, with or without glucose and glutamine",either maintained or increased
same,basal extracellular acidification rate (ECAR),[2]; DEG 30 min (acute) or 7 days (chronic),increases
same,"glycolytic rate (GST), acute exposure",[2]; DEG 30 min in the Seahorse XF Analyzer,increased glycolytic rate
same,"effect of FCCP on OCR (MST), cells treated acutely with DEG",[2]; acute DEG,did not have an effect
same,"glycolytic rate (GST), chronic exposure",[2]; cultured with DEG for 7 days,increased glycolytic rate
same,"dependence on fatty acid, glucose and glutamine oxidation","[2]; fuel flex test, 500 µM DEG, 7 days",not more dependent
same,capacity to oxidize fatty acids,[2]; [5],increased capacity
same,capacity to oxidize glucose,[2]; [5],increased capacity
same,"PDHc activity, acute exposure",[3]; 30 min,decreased PDHc activity
same,"PDHc activity, chronic exposure",[3]; seven day,decreased PDHc activity
same,5hmC levels,[4],decrease
